In PubChem BioAssay (NCI):
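These data come from cells grown in 96-well plates and exposed to compound for 48 hours at five concentrations. GI50 = concentration required for 50% inhibition of growth. TGI is the concentration that stops growth completely.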

Experiments:
Experiment in all cases: growth of human tumour cells (NCI), 48 h
OVCAR-8 ovarian = tested on: OVCAR-8 ovarian
EKVX NSCLC = tested on: EKVX NSCLC
U251 CNS = tested on: U251 CNS
CCRF-CEM leukemia = tested on: CCRF-CEM leukemia
NCI-H23 lung = tested on: NCI-H23 lung
SK-MEL-28 melanoma = tested on: SK-MEL-28 melanoma
OVCAR-3 ovarian = tested on: OVCAR-3 ovarian
BT-549 breast = tested on: BT-549 breast
DU-145 prostate = tested on: DU-145 prostate
T-47D breast = tested on: T-47D breast

CCCCCCC[CH2][Sn]1([CH2]CCCCCCC)[O]C(=O)c2cccnc2[S]1
GI50 (OVCAR-8 ovarian): > 100 µM
TGI (OVCAR-8 ovarian): > 100 µM
GI50 (EKVX NSCLC): > 100 µM
TGI (EKVX NSCLC): > 100 µM
GI50 (U251 CNS): > 100 µM
TGI (U251 CNS): > 100 µM
GI50 (CCRF-CEM leukemia): > 100 µM
TGI (CCRF-CEM leukemia): > 100 µM
GI50 (NCI-H23 lung): > 100 µM
TGI (NCI-H23 lung): > 100 µM
GI50 (SK-MEL-28 melanoma): > 100 µM
TGI (SK-MEL-28 melanoma): > 100 µM
GI50 (OVCAR-3 ovarian): > 100 µM
TGI (OVCAR-3 ovarian): > 100 µM

O=C(NCCCCN=c1cccccc1NCCCCNC(=O)OCc1ccccc1)OCc1ccccc1
TGI (OVCAR-8 ovarian): 47.7 µM
TGI (EKVX NSCLC): 81.4 µM
TGI (U251 CNS): 32.1 µM
TGI (CCRF-CEM leukemia): 47.8 µM
TGI (NCI-H23 lung): 48.8 µM
TGI (SK-MEL-28 melanoma): 39.6 µM
TGI (OVCAR-3 ovarian): 29.5 µM

COc1ccc(C(O)c2nccn2C)c(OC)c1 (stereo not drawn)
TGI (OVCAR-8 ovarian): > 100 µM
TGI (EKVX NSCLC): > 100 µM
TGI (BT-549 breast): > 100 µM
TGI (DU-145 prostate): > 100 µM
TGI (U251 CNS): > 100 µM
TGI (CCRF-CEM leukemia): > 100 µM
TGI (NCI-H23 lung): > 100 µM
TGI (SK-MEL-28 melanoma): > 100 µM
TGI (OVCAR-3 ovarian): > 100 µM

O=c1c2ccccc2sc2cccc(NCCCN3CCN(CCCNc4cccc5sc6ccccc6c(=O)c45)CC3)c12
TGI (EKVX NSCLC): > 100 µM
TGI (DU-145 prostate): > 100 µM
TGI (U251 CNS): > 100 µM
TGI (CCRF-CEM leukemia): > 100 µM
TGI (NCI-H23 lung): > 100 µM
TGI (SK-MEL-28 melanoma): > 100 µM
TGI (OVCAR-3 ovarian): > 100 µM
TGI (T-47D breast): > 100 µM

COc1ccc2oc(-c3cccnc3)cc(=O)c2c1
TGI (U251 CNS): > 100 µM
TGI (CCRF-CEM leukemia): > 100 µM
TGI (NCI-H23 lung): > 100 µM
TGI (SK-MEL-28 melanoma): > 100 µM
TGI (OVCAR-3 ovarian): > 100 µM

COc1cc(-c2nn(-c3cccc(NC(=O)Nc4ccc(Cl)c(Cl)c4)c3)cc2-c2ccncc2)ccc1Cl
GI50 (OVCAR-8 ovarian): 0.931 µM
TGI (OVCAR-8 ovarian): 3.61 µM
GI50 (BT-549 breast): 1.68 µM
TGI (BT-549 breast): 27.6 µM
GI50 (DU-145 prostate): 1.52 µM
TGI (DU-145 prostate): 34.2 µM
GI50 (U251 CNS): 0.82 µM
TGI (U251 CNS): 2.47 µM
GI50 (NCI-H23 lung): 1.41 µM
TGI (NCI-H23 lung): 5.19 µM
GI50 (SK-MEL-28 melanoma): 1.43 µM
TGI (SK-MEL-28 melanoma): 7.32 µM
GI50 (OVCAR-3 ovarian): 0.697 µM
TGI (OVCAR-3 ovarian): 2.27 µM
GI50 (T-47D breast): 1.42 µM
TGI (T-47D breast): > 50 µM

CC(=O)OC12c3ccccc3-c3ccccc3C1C1C(=O)N(C)C(=O)C12Cl (stereo not drawn)
TGI (OVCAR-8 ovarian): > 10 µM
TGI (EKVX NSCLC): > 10 µM
TGI (DU-145 prostate): > 10 µM
TGI (U251 CNS): > 10 µM
TGI (CCRF-CEM leukemia): > 10 µM
TGI (NCI-H23 lung): > 10 µM
TGI (SK-MEL-28 melanoma): > 10 µM
TGI (OVCAR-3 ovarian): > 10 µM
TGI (T-47D breast): > 10 µM

COC1C(O)=C2C(=O)O/C(C)=C/C=C/C=C/C=C\CC(c3ccccc3)NC(=O)\C=C/C=C\C=C\C=C\[C@@]2(C)[C@@H]1O (stereo partly drawn)
TGI (OVCAR-8 ovarian): 0.243 µM
TGI (EKVX NSCLC): 0.279 µM
TGI (BT-549 breast): 0.0201 µM
TGI (DU-145 prostate): 0.178 µM
TGI (U251 CNS): 0.0195 µM
TGI (CCRF-CEM leukemia): 0.0577 µM
TGI (SK-MEL-28 melanoma): 0.0518 µM
TGI (OVCAR-3 ovarian): 0.271 µM
TGI (T-47D breast): 0.158 µM

CCOc1ccc(N2C(=O)/C(=C/c3ccc(N(CCC#N)CCC#N)cc3)N=C2c2cc([N+](=O)[O-])ccc2Cl)cc1
TGI (OVCAR-8 ovarian): > 100 µM
TGI (EKVX NSCLC): > 100 µM
TGI (U251 CNS): > 100 µM
TGI (NCI-H23 lung): > 100 µM
TGI (SK-MEL-28 melanoma): 41.8 µM
TGI (OVCAR-3 ovarian): 56.5 µM

CCOC(=O)C1(c2ccccc2)CCC(=O)CC1
TGI (OVCAR-8 ovarian): > 100 µM
TGI (EKVX NSCLC): > 100 µM
TGI (U251 CNS): > 100 µM
TGI (CCRF-CEM leukemia): > 100 µM
TGI (NCI-H23 lung): > 100 µM
TGI (SK-MEL-28 melanoma): > 100 µM
TGI (OVCAR-3 ovarian): > 100 µM

Cc1ccc(S(=O)(=O)N/N=C/c2oc(-c3ccncc3)c(-c3ccncc3)c2[N+](=O)[O-])cc1
TGI (OVCAR-8 ovarian): > 100 µM
TGI (EKVX NSCLC): > 100 µM
TGI (U251 CNS): > 100 µM
TGI (CCRF-CEM leukemia): > 100 µM
TGI (NCI-H23 lung): > 100 µM
TGI (SK-MEL-28 melanoma): > 100 µM
TGI (OVCAR-3 ovarian): > 100 µM

O=C1NC(=S)NNC12c1ccccc1-c1ccccc12
TGI (OVCAR-8 ovarian): > 10 µM
TGI (EKVX NSCLC): > 10 µM
TGI (BT-549 breast): > 10 µM
TGI (DU-145 prostate): > 10 µM
TGI (U251 CNS): > 10 µM
TGI (CCRF-CEM leukemia): > 10 µM
TGI (NCI-H23 lung): > 10 µM
TGI (SK-MEL-28 melanoma): > 10 µM
TGI (T-47D breast): > 10 µM

C[C@H]1NC(=O)C2CCCCN2C(=O)CN(C)C(=O)CNC(=O)C2CCCCN2C(=O)[C@@H](NC(=O)c2nc3ccccc3cc2O)[C@@H](C)NC(=O)C2CCCCN2C(=O)CN(C)C(=O)CNC(=O)[C@@H]2CCCCN2C(=O)C1NC(=O)c1nc2ccccc2cc1O (stereo partly drawn)
TGI (OVCAR-8 ovarian): > 100 µM
TGI (EKVX NSCLC): 23.2 µM
TGI (U251 CNS): 36.6 µM
TGI (CCRF-CEM leukemia): 5.16 µM
TGI (NCI-H23 lung): 0.69 µM
TGI (SK-MEL-28 melanoma): 0.465 µM
TGI (OVCAR-3 ovarian): 0.773 µM

O=C(O)[C@H](NS(=O)(=O)c1ccc2ccccc2c1)c1ccccc1
TGI (U251 CNS): > 100 µM
TGI (CCRF-CEM leukemia): > 100 µM
TGI (NCI-H23 lung): > 100 µM
TGI (SK-MEL-28 melanoma): > 100 µM

CCOc1ccc2c(c1)[n+]([O-])c(-c1ccccc1Cl)c(N)[n+]2[O-]
TGI (OVCAR-8 ovarian): > 100 µM
TGI (EKVX NSCLC): > 100 µM
TGI (U251 CNS): > 100 µM
TGI (CCRF-CEM leukemia): > 100 µM
TGI (NCI-H23 lung): > 100 µM
TGI (SK-MEL-28 melanoma): > 100 µM
TGI (OVCAR-3 ovarian): > 100 µM

Cc1ccc(/C=C/c2c(C(=O)/C=C/c3ccc(C(F)(F)F)cc3)c(C)nc3ccccc23)cc1
GI50 (OVCAR-8 ovarian): 1.88 µM
TGI (OVCAR-8 ovarian): 6.43 µM
GI50 (EKVX NSCLC): 1.53 µM
TGI (EKVX NSCLC): 3.36 µM
GI50 (BT-549 breast): 1.58 µM
TGI (BT-549 breast): 3.34 µM
GI50 (DU-145 prostate): 1.56 µM
TGI (DU-145 prostate): 2.9 µM
GI50 (U251 CNS): 1.47 µM
TGI (U251 CNS): 3.13 µM
GI50 (CCRF-CEM leukemia): 0.411 µM
TGI (CCRF-CEM leukemia): > 100 µM
GI50 (NCI-H23 lung): 1.29 µM
TGI (NCI-H23 lung): 3.13 µM
GI50 (SK-MEL-28 melanoma): 1.93 µM
TGI (SK-MEL-28 melanoma): 3.63 µM
GI50 (OVCAR-3 ovarian): 1.55 µM
TGI (OVCAR-3 ovarian): 3.82 µM

Cc1ccc(NC(=O)C2C(=O)N(c3ccc(C)c(C)c3)C(=O)C2N=N)cc1C (stereo not drawn)
TGI (OVCAR-8 ovarian): > 100 µM
TGI (EKVX NSCLC): > 100 µM
TGI (U251 CNS): > 100 µM
TGI (NCI-H23 lung): > 100 µM
TGI (SK-MEL-28 melanoma): > 100 µM
TGI (OVCAR-3 ovarian): > 100 µM

O=C1[C@@H]2C3c4ccccc4C([C@@H]2C(=O)N1c1ccccc1)S3(=O)=O
TGI (OVCAR-8 ovarian): > 100 µM
TGI (EKVX NSCLC): > 100 µM
TGI (U251 CNS): > 100 µM
TGI (CCRF-CEM leukemia): > 100 µM
TGI (NCI-H23 lung): > 100 µM
TGI (OVCAR-3 ovarian): > 100 µM

CCN1CCN=c2c3cc(OC)ccc3n3cnc4ccc1c2c43
TGI (OVCAR-8 ovarian): 1.4 µM
TGI (EKVX NSCLC): 2.33 µM
TGI (DU-145 prostate): 2.73 µM
TGI (U251 CNS): 1.05 µM
TGI (CCRF-CEM leukemia): 0.747 µM
TGI (NCI-H23 lung): 0.985 µM
TGI (SK-MEL-28 melanoma): 1.83 µM
TGI (OVCAR-3 ovarian): 0.525 µM
TGI (T-47D breast): 3.06 µM

COC(=O)[C@]1(C)CCCC2(C)C1CC[C@H]1C=C(C)[C@H]3CCC12C3 (stereo partly drawn)
TGI (OVCAR-8 ovarian): > 100 µM
TGI (U251 CNS): > 100 µM
TGI (CCRF-CEM leukemia): > 100 µM
TGI (NCI-H23 lung): > 100 µM
TGI (SK-MEL-28 melanoma): > 100 µM
TGI (OVCAR-3 ovarian): > 100 µM

COc1cccc(/C=N/[N-]C(=O)c2ccncc2)c1[O-].[Cu+2].[OH3+]
GI50 (OVCAR-8 ovarian): 22 µM
TGI (OVCAR-8 ovarian): > 100 µM
GI50 (EKVX NSCLC): 58 µM
TGI (EKVX NSCLC): > 100 µM
GI50 (U251 CNS): 20.5 µM
TGI (U251 CNS): > 100 µM
GI50 (CCRF-CEM leukemia): 27.9 µM
TGI (CCRF-CEM leukemia): > 100 µM
GI50 (NCI-H23 lung): 34.1 µM
TGI (NCI-H23 lung): > 100 µM
GI50 (SK-MEL-28 melanoma): > 100 µM
TGI (SK-MEL-28 melanoma): > 100 µM
GI50 (OVCAR-3 ovarian): 33.7 µM
TGI (OVCAR-3 ovarian): > 100 µM
